# Source: the supplement of paper PMC4380931
# ± gives the standard deviation of the averaged measurements.
# Tests used:
# Experiment in all cases: relative viability (cell count relative to DMSO-treated control) (fraction of DMSO control); higher = more viable cells / less drug effect
# MMACSF = system: MMACSF
# Procedure: (§1)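 BRAF V600E/D melanoma cell lines were seeded in 96-well plates, treated in 4 replicates with seven doses (3.16 nM to 3.16 uM) of RAF/MEK inhibitors for 24, 48 or 72 h, and stained with Hoechst 33342 (nuclei) and DEVD-NucView488 caspase-3 substrate. Plates were imaged on an Operetta. Relative viability is the cell count normalised to a DMSO-treated control; apoptosis fraction is the fraction of NucView488-positive nuclei.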
# RVH421 = system: RVH421
# Procedure: as §1
# COLO858 = system: COLO858
# Procedure: as §1
# SKMEL28 = system: SKMEL28
# Procedure: as §1
# WM115 = system: WM115
# Procedure: as §1
# WM1552C = system: WM1552C
# Procedure: as §1
structure (smiles),measurement,setting,value
Cn1cnc2c(F)c(Nc3ccc(Br)cc3Cl)c(C(=O)NOCCO)cc21 [Selumetinib],relative viability,"MMACSF; 24 h, 0.00316 µM",1.11 ± 0.026
same,relative viability,"MMACSF; 24 h, 0.01 µM",1.02 ± 0.045
same,relative viability,"MMACSF; 24 h, 0.0316 µM",1.022 ± 0.0064
same,relative viability,"MMACSF; 24 h, 0.1 µM",1.05 ± 0.027
same,relative viability,"MMACSF; 24 h, 0.316 µM",0.989 ± 0.045
same,relative viability,"MMACSF; 24 h, 1 µM",1.04 ± 0.026
same,relative viability,"MMACSF; 24 h, 3.16 µM",1.06 ± 0.017
same,relative viability,"MMACSF; 48 h, 0.00316 µM",0.907 ± 0.063
same,relative viability,"MMACSF; 48 h, 0.01 µM",1.01 ± 0.048
same,relative viability,"MMACSF; 48 h, 0.0316 µM",0.88 ± 0.046
same,relative viability,"MMACSF; 48 h, 0.1 µM",0.743 ± 0.06
same,relative viability,"MMACSF; 48 h, 0.316 µM",0.748 ± 0.043
same,relative viability,"MMACSF; 48 h, 1 µM",0.664 ± 0.039
same,relative viability,"MMACSF; 48 h, 3.16 µM",0.533 ± 0.03
same,relative viability,"MMACSF; 72 h, 0.00316 µM",0.924 ± 0.056
same,relative viability,"MMACSF; 72 h, 0.01 µM",0.759 ± 0.066
same,relative viability,"MMACSF; 72 h, 0.0316 µM",0.563 ± 0.054
same,relative viability,"MMACSF; 72 h, 0.1 µM",0.449 ± 0.054
same,relative viability,"MMACSF; 72 h, 0.316 µM",0.344 ± 0.032
same,relative viability,"MMACSF; 72 h, 1 µM",0.21 ± 0.017
same,relative viability,"MMACSF; 72 h, 3.16 µM",0.141 ± 0.01
same,relative viability,"RVH421; 24 h, 0.00316 µM",0.975 ± 0.047
same,relative viability,"RVH421; 24 h, 0.01 µM",0.995 ± 0.019
same,relative viability,"RVH421; 24 h, 0.0316 µM",1.032 ± 0.0097
same,relative viability,"RVH421; 24 h, 0.1 µM",1.03 ± 0.022
same,relative viability,"RVH421; 24 h, 0.316 µM",1.09 ± 0.012
same,relative viability,"RVH421; 24 h, 1 µM",1.02
same,relative viability,"RVH421; 24 h, 3.16 µM",0.919 ± 0.093
same,relative viability,"RVH421; 48 h, 0.00316 µM",1.04 ± 0.058
same,relative viability,"RVH421; 48 h, 0.01 µM",0.884 ± 0.11
same,relative viability,"RVH421; 48 h, 0.0316 µM",0.795 ± 0.06
same,relative viability,"RVH421; 48 h, 0.1 µM",0.721 ± 0.05
same,relative viability,"RVH421; 48 h, 0.316 µM",0.659 ± 0.049
same,relative viability,"RVH421; 48 h, 1 µM",0.658 ± 0.025
same,relative viability,"RVH421; 48 h, 3.16 µM",0.593 ± 0.008
same,relative viability,"RVH421; 72 h, 0.00316 µM",1.01 ± 0.058
same,relative viability,"RVH421; 72 h, 0.01 µM",0.988 ± 0.08
same,relative viability,"RVH421; 72 h, 0.0316 µM",0.849 ± 0.11
same,relative viability,"RVH421; 72 h, 0.1 µM",0.657 ± 0.071
same,relative viability,"RVH421; 72 h, 0.316 µM",0.566 ± 0.067
same,relative viability,"RVH421; 72 h, 1 µM",0.511 ± 0.062
same,relative viability,"RVH421; 72 h, 3.16 µM",0.488 ± 0.041
same,relative viability,"COLO858; 24 h, 0.00316 µM",0.844 ± 0.41
same,relative viability,"COLO858; 24 h, 0.01 µM",1.09 ± 0.26
same,relative viability,"COLO858; 24 h, 0.0316 µM",1.24 ± 0.37
same,relative viability,"COLO858; 24 h, 0.1 µM",1.12 ± 0.3
same,relative viability,"COLO858; 24 h, 0.316 µM",1.01 ± 0.29
same,relative viability,"COLO858; 24 h, 1 µM",0.937 ± 0.25
same,relative viability,"COLO858; 24 h, 3.16 µM",0.856 ± 0.27
same,relative viability,"COLO858; 48 h, 0.00316 µM",0.983 ± 0.024
same,relative viability,"COLO858; 48 h, 0.01 µM",1.05 ± 0.024
same,relative viability,"COLO858; 48 h, 0.0316 µM",1.06 ± 0.043
same,relative viability,"COLO858; 48 h, 0.1 µM",0.702 ± 0.056
same,relative viability,"COLO858; 48 h, 0.316 µM",0.455 ± 0.011
same,relative viability,"COLO858; 48 h, 1 µM",0.374 ± 0.014
same,relative viability,"COLO858; 48 h, 3.16 µM",0.315 ± 0.0075
same,relative viability,"COLO858; 72 h, 0.00316 µM",0.974 ± 0.046
same,relative viability,"COLO858; 72 h, 0.01 µM",1.05 ± 0.11
same,relative viability,"COLO858; 72 h, 0.0316 µM",0.843 ± 0.16
same,relative viability,"COLO858; 72 h, 0.1 µM",0.545 ± 0.077
same,relative viability,"COLO858; 72 h, 0.316 µM",0.427 ± 0.065
same,relative viability,"COLO858; 72 h, 1 µM",0.342 ± 0.041
same,relative viability,"COLO858; 72 h, 3.16 µM",0.28 ± 0.021
same,relative viability,"SKMEL28; 48 h, 0.00316 µM",0.799 ± 0.12
same,relative viability,"SKMEL28; 48 h, 0.01 µM",1.31 ± 0.097
same,relative viability,"SKMEL28; 48 h, 0.0316 µM",1.43 ± 0.17
same,relative viability,"SKMEL28; 48 h, 0.1 µM",1.12 ± 0.1
same,relative viability,"SKMEL28; 48 h, 0.316 µM",0.964 ± 0.071
same,relative viability,"SKMEL28; 48 h, 1 µM",0.852 ± 0.06
same,relative viability,"SKMEL28; 48 h, 3.16 µM",0.604 ± 0.037
same,relative viability,"SKMEL28; 72 h, 0.00316 µM",1.06 ± 0.16
same,relative viability,"SKMEL28; 72 h, 0.01 µM",0.975 ± 0.23
same,relative viability,"SKMEL28; 72 h, 0.0316 µM",0.804 ± 0.16
same,relative viability,"SKMEL28; 72 h, 0.1 µM",0.543 ± 0.038
same,relative viability,"SKMEL28; 72 h, 0.316 µM",0.449 ± 0.064
same,relative viability,"SKMEL28; 72 h, 1 µM",0.419 ± 0.066
same,relative viability,"SKMEL28; 72 h, 3.16 µM",0.337 ± 0.056
same,relative viability,"WM115; 24 h, 0.00316 µM",1.06 ± 0.07
same,relative viability,"WM115; 24 h, 0.01 µM",1.27 ± 0.17
same,relative viability,"WM115; 24 h, 0.0316 µM",1.36 ± 0.32
same,relative viability,"WM115; 24 h, 0.1 µM",1.27 ± 0.36
same,relative viability,"WM115; 24 h, 0.316 µM",1.46 ± 0.29
same,relative viability,"WM115; 24 h, 1 µM",0.89 ± 0.19
same,relative viability,"WM115; 24 h, 3.16 µM",0.728 ± 0.22
same,relative viability,"WM115; 48 h, 0.00316 µM",1.02 ± 0.51
same,relative viability,"WM115; 48 h, 0.01 µM",1.39 ± 0.54
same,relative viability,"WM115; 48 h, 0.0316 µM",1.37 ± 0.42
same,relative viability,"WM115; 48 h, 0.1 µM",1.48 ± 0.43
same,relative viability,"WM115; 48 h, 0.316 µM",1.24 ± 0.34
same,relative viability,"WM115; 48 h, 1 µM",0.823 ± 0.024
same,relative viability,"WM115; 48 h, 3.16 µM",0.592 ± 0.11
same,relative viability,"WM115; 72 h, 0.00316 µM",1.03 ± 0.042
same,relative viability,"WM115; 72 h, 0.01 µM",1.07 ± 0.091
same,relative viability,"WM115; 72 h, 0.0316 µM",0.918 ± 0.056
same,relative viability,"WM115; 72 h, 0.1 µM",0.751 ± 0.068
same,relative viability,"WM115; 72 h, 0.316 µM",0.587 ± 0.059
same,relative viability,"WM115; 72 h, 1 µM",0.409 ± 0.029
same,relative viability,"WM115; 72 h, 3.16 µM",0.287 ± 0.035
same,relative viability,"WM1552C; 24 h, 0.00316 µM",0.97 ± 0.012
same,relative viability,"WM1552C; 24 h, 0.01 µM",0.993 ± 0.024
same,relative viability,"WM1552C; 24 h, 0.0316 µM",1.0822 ± 0.00085
same,relative viability,"WM1552C; 24 h, 0.1 µM",1.07 ± 0.0091
same,relative viability,"WM1552C; 24 h, 0.316 µM",1.03 ± 0.016
same,relative viability,"WM1552C; 24 h, 1 µM",1.06 ± 0.022
same,relative viability,"WM1552C; 24 h, 3.16 µM",0.947 ± 0.033
same,relative viability,"WM1552C; 48 h, 0.00316 µM",0.947 ± 0.041
same,relative viability,"WM1552C; 48 h, 0.01 µM",0.992 ± 0.035
same,relative viability,"WM1552C; 48 h, 0.0316 µM",0.956 ± 0.025
same,relative viability,"WM1552C; 48 h, 0.1 µM",0.867 ± 0.032
same,relative viability,"WM1552C; 48 h, 0.316 µM",0.761 ± 0.04
same,relative viability,"WM1552C; 48 h, 1 µM",0.676 ± 0.024
same,relative viability,"WM1552C; 48 h, 3.16 µM",0.677 ± 0.034
same,relative viability,"WM1552C; 72 h, 0.00316 µM",0.862 ± 0.19
same,relative viability,"WM1552C; 72 h, 0.01 µM",0.918 ± 0.12
same,relative viability,"WM1552C; 72 h, 0.0316 µM",0.806 ± 0.092
same,relative viability,"WM1552C; 72 h, 0.1 µM",0.635 ± 0.084
same,relative viability,"WM1552C; 72 h, 0.316 µM",0.526 ± 0.023
same,relative viability,"WM1552C; 72 h, 1 µM",0.44 ± 0.038
same,relative viability,"WM1552C; 72 h, 3.16 µM",0.411 ± 0.057
